Measured values published in the supplement of paper PMC8960247.
Counter-ions that a name gives are not always drawn. ± gives the standard error.

Tests used:
621-103 (TSC2-rescued) = assay: relative viability vs DMSO; higher = less cytotoxic; conditions: serum: 10% FBS, 72 h
621-102 (TSC2-deficient) = assay: as above; conditions: serum: 10% FBS, 72 h
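Further: immortalized renal angiomyolipoma cells stably carrying empty vector or TSC2, dosed in 384-well plates in DMEM, viability normalized to vehicle-treated wells within each plate.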

Compound | relative viability (621-103 (TSC2-rescued); 0.0001 µM) | relative viability (621-103 (TSC2-rescued); 0.001 µM) | relative viability (621-103 (TSC2-rescued); 0.01 µM) | relative viability (621-103 (TSC2-rescued); 0.1 µM) | relative viability (621-103 (TSC2-rescued); 1 µM) | relative viability (621-103 (TSC2-rescued); 10 µM) | relative viability (621-102 (TSC2-deficient); 0.0001 µM) | relative viability (621-102 (TSC2-deficient); 0.001 µM) | relative viability (621-102 (TSC2-deficient); 0.01 µM) | relative viability (621-102 (TSC2-deficient); 0.1 µM) | relative viability (621-102 (TSC2-deficient); 1 µM) | relative viability (621-102 (TSC2-deficient); 10 µM)
CCOc1nc2cccc(C(=O)OC(C)OC(=O)OC3CCCCC3)c2n1Cc1ccc(-c2ccccc2-c2nn[nH]n2)cc1 (stereo not drawn) [Candesartan cilexetil] | 96.526 ± 0.053% | 95.8 ± 3.5% | 94.03 ± 0.16% | 97.8 ± 1.6% | 99.8 ± 5.4% | 94.55 ± 0.33% | 106.1 ± 0.3% | 97.7 ± 2.1% | 102 ± 2.7% | 106 ± 1.2% | 96.9 ± 2.4% | 97.55 ± 0.87%
CCCCCOC(=O)Nc1nc(=O)n([C@@H]2O[C@H](C)[C@@H](O)[C@H]2O)cc1F [Capecitabine (Xeloda)] | 103 ± 1.9% | 99.6 ± 1.4% | 101.3 ± 0.12% | 99.27 ± 0.86% | 99.79 ± 0.64% | 100 ± 1.3% | 108.6 ± 0.75% | 112.3 ± 1.1% | 110 ± 2.9% | 106 ± 1.7% | 110.4 ± 0.14% | 100.35 ± 0.077%
NC(=O)N1c2ccccc2C=Cc2ccccc21 [Carbamazepine (Carbatrol)] | 101.9 ± 0.54% | 105.8 ± 0.3% | 103 ± 1.8% | 107.7 ± 0.39% | 105 ± 0.35% | 98.871 ± 0.053% | 93.1 ± 3.9% | 96.7 ± 3.8% | 93.3 ± 3% | 101.1 ± 0.14% | 108.4 ± 0.97% | 94.54 ± 0.19%
C[C@@](Cc1ccc(O)c(O)c1)(NN)C(=O)O [Carbidopa] | 92 ± 1.9% | 103.2 ± 0.12% | 93.7 ± 2.5% | 107 ± 2.1% | 104 ± 4.8% | 92.1 ± 1.4% | 97.3 ± 3.2% | 104 ± 5.4% | 90.03 ± 0.71% | 103 ± 1.6% | 99.6 ± 2.6% | 89.7 ± 1.3%
COc1cc2c(Oc3ccc4[nH]c(C)cc4c3F)ncnc2cc1OCCCN1CCCC1 [Cediranib (AZD2171)] | 81.9 ± 2.5% | 89.4 ± 1.5% | 102 ± 1.9% | 97.36 ± 0.37% | 62.3 ± 2.6% | 1.75 ± 0.065% | 104 ± 3.6% | 117 ± 2.7% | 121 ± 5.1% | 102 ± 2.1% | 84.2 ± 1.6% | 10.6 ± 4.9%
CO/N=C(\C(=O)N[C@@H]1C(=O)N2C(C(=O)O)=C(CSC(=O)c3ccco3)CS[C@H]12)c1csc(N)n1 [Ceftiofur HCl] | 98.6 ± 4.3% | 99.23 ± 0.84% | 94.4 ± 3% | 97.5 ± 5.2% | 94.3 ± 1.6% | 94.2 ± 3.3% | 116 ± 6.8% | 112.1 ± 0.33% | 123 ± 2% | 117 ± 5.6% | 116 ± 2% | 110 ± 1.9%
CN(C)CCCN1c2ccccc2Sc2ccc(Cl)cc21 [Chlorpromazine HCl] | 97.7 ± 3.2% | 92.6 ± 5.6% | 95.67 ± 0.89% | 102 ± 6.1% | 91.8 ± 4.6% | 63.7 ± 4.6% | 88.27 ± 0.79% | 87.9 ± 6.9% | 93.3 ± 8.6% | 101 ± 8.9% | 101 ± 7.6% | 81.9 ± 3.2%
CN(C)CC/C=C1/c2ccccc2Sc2ccc(Cl)cc21 [Chlorprothixene] | 103 ± 2.4% | 106 ± 5.4% | 102.3 ± 0.14% | 108 ± 2.9% | 108.9 ± 0.97% | 89.1 ± 2% | 93.1 ± 1.6% | 102 ± 5.2% | 102 ± 4.3% | 102.9 ± 0.47% | 108 ± 4% | 100.8 ± 0.6%
COCCOC(=O)C1=C(C)NC(C)=C(C(=O)OC/C=C/c2ccccc2)C1c1cccc([N+](=O)[O-])c1 (stereo not drawn) [Cilnidipine] | 98.6 ± 2.3% | 104 ± 3.4% | 105.9 ± 0.78% | 113 ± 2.5% | 100 ± 1.8% | 104 ± 3.1% | 118 ± 4% | 100.5 ± 0.18% | 102.6 ± 0.79% | 95.6 ± 1.2% | 99.98 ± 0.81% | 98 ± 2.2%
O=C1CCc2cc(OCCCCc3nnnn3C3CCCCC3)ccc2N1 [Cilostazol] | 107.6 ± 0.22% | 100.9 ± 0.71% | 108 ± 1.6% | 104.6 ± 1% | 101 ± 3.3% | 97.51 ± 0.021% | 109 ± 1.2% | 102 ± 0.67% | 107.6 ± 0.99% | 109 ± 3% | 96.51 ± 0.85% | 101 ± 2.5%
CC(C)(Oc1ccc(C2CC2(Cl)Cl)cc1)C(=O)O (stereo not drawn) [Ciprofibrate] | 107 ± 2.5% | 102 ± 3.9% | 98.7 ± 5% | 109.4 ± 0.22% | 103.1 ± 0.95% | 102 ± 1.3% | 105.1 ± 0.47% | 100 ± 4.4% | 103.6 ± 0.33% | 93.48 ± 0.86% | 97 ± 5.4% | 102 ± 1.7%
Nc1nc(Cl)nc2c1ncn2[C@H]1C[C@H](O)[C@@H](CO)O1 [Cladribine] | 101 ± 1.4% | 101 ± 2.1% | 105 ± 2.1% | 105 ± 2.4% | 60.3 ± 0.92% | 43.5 ± 0.46% | 106.2 ± 0.9% | 110 ± 1.8% | 113 ± 2.1% | 106.4 ± 0.98% | 97.8 ± 3.5% | 52.73 ± 0.19%
CC[C@H]1OC(=O)[C@H](C)[C@@H](O[C@H]2C[C@@](C)(OC)[C@@H](O)[C@H](C)O2)[C@H](C)[C@@H](O[C@@H]2O[C@H](C)C[C@H](N(C)C)[C@H]2O)[C@](C)(OC)C[C@@H](C)C(=O)[C@H](C)[C@@H](O)[C@]1(C)O [Clarithromycin (Biaxin,Klacid)] | 106 ± 2% | 91.4 ± 2.9% | 104 ± 1.4% | 102 ± 1.1% | 102 ± 3.7% | 93.43 ± 0.4% | 118 ± 2% | 113 ± 2.8% | 108 ± 0.65% | 115 ± 2.5% | 105 ± 0.45% | 98.8 ± 1.5%
CCC(C)(Oc1ccc(C2(c3ccc(OC(C)(CC)C(=O)O)cc3)CCCCC2)cc1)C(=O)O (stereo not drawn) [Clinofibrate] | 102.4 ± 0.13% | 93 ± 7.7% | 94.9 ± 0.43% | 105 ± 1.8% | 105 ± 3.6% | 91.3 ± 2.9% | 99.8 ± 0.13% | 107 ± 1.1% | 99.1 ± 2.4% | 99.1 ± 1.4% | 94.4 ± 4.2% | 107 ± 2.1%
CCN(CC)CCOc1ccc(C(=C(Cl)c2ccccc2)c2ccccc2)cc1 [Clomifene citrate (Serophene)] | 102 ± 3.5% | 99.3 ± 1.9% | 97.2 ± 5.9% | 96.14 ± 0.13% | 101 ± 4.7% | 14 ± 0.71% | 108 ± 1.1% | 105 ± 6% | 104 ± 3.9% | 102 ± 2.1% | 105 ± 1.7% | 58.6 ± 10%
CN(C)CCCN1c2ccccc2CCc2ccc(Cl)cc21 [Clomipramine HCl] | 100 ± 4.4% | 102 ± 1.1% | 102 ± 3.2% | 108 ± 3% | 93.4 ± 5.5% | 75.7 ± 1.8% | 114 ± 2.6% | 109 ± 1.4% | 111 ± 2.2% | 111 ± 4% | 109.6 ± 0.49% | 85.7 ± 0.93%
Clc1cccc(Cl)c1NC1=NCCN1 [Clonidine HCl (Catapres)] | 96.4 ± 1.4% | 92.5 ± 0.96% | 93.1 ± 9.7% | 110 ± 0.19% | 113 ± 5.1% | 108 ± 1.1% | 111 ± 5% | 110 ± 5.9% | 101 ± 1.1% | 104 ± 3.7% | 102.3 ± 0.16% | 104 ± 1.4%
COC(=O)[C@H](c1ccccc1Cl)N1CCc2sccc2C1 [Clopidogrel Bisulfate] | 109.1 ± 0.85% | 108 ± 4.5% | 111 ± 4.1% | 103 ± 2% | 104.86 ± 0.079% | 102.2 ± 0.55% | 105 ± 1.4% | 102 ± 1.4% | 108.3 ± 0.95% | 105 ± 1.4% | 105 ± 4% | 99.8 ± 5.3%
Nc1cc(C(Cl)=C(Cl)Cl)c(S(N)(=O)=O)cc1S(N)(=O)=O [Clorsulon] | 81.5 ± 3.3% | 86.2 ± 4% | 73.8 ± 6.7% | 88.2 ± 12% | 91.8 ± 5.8% | 79.6 ± 10% | 109 ± 2.7% | 111.6 ± 0.7% | 107 ± 1.5% | 101 ± 2.9% | 98.4 ± 1.1% | 106 ± 1.2%
